Experimental data from ChEMBL document CHEMBL1938296, “Steroidal C-21 heteroaryl thioethers (Part 2): discovery of orally bioavailable selective glucocorticoid receptor modulators (dissociated steroids)” (Bioorg Med Chem Lett, 2012).
Active and inactive are the calls of the source. No cut-off for these calls is given here.

Assays:
[1] = target: T1, Glucocorticoid receptor (Homo sapiens, UniProt P04150); assay: Transrepression activity at glucocorticoid receptor in human H292 cells assessed as inhibition of TNF-stimulated IL-8 production; format: cell-based
T1 sequence (P04150 whole entry): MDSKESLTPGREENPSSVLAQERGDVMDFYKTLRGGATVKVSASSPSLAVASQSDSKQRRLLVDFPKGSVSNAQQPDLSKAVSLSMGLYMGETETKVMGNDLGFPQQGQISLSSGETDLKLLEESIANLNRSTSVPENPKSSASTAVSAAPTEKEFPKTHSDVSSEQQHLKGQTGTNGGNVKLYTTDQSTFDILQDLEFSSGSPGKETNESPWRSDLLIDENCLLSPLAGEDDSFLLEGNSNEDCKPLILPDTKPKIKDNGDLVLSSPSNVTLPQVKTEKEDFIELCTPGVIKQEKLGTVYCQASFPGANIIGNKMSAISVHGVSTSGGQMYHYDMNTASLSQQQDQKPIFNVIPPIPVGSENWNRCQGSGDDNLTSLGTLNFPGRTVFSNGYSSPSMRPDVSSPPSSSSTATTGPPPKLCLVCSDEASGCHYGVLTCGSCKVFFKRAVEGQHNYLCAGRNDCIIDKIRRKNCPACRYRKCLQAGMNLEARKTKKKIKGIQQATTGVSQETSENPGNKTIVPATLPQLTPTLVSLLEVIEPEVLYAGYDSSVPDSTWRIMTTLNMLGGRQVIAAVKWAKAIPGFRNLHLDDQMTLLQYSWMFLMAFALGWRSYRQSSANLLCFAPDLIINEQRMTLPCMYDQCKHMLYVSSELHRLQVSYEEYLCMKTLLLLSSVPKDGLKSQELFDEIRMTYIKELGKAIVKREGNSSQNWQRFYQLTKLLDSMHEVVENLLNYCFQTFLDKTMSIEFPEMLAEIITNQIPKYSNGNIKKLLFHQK

[2] = target: T2, Glucocorticoid receptor (Rattus norvegicus, UniProt P06536); assay: Transactivation of glucocorticoid receptor in rat H42E cells assessed as induction of TAT measuring degradation of tyrosine to p-hydroxy phenyl pyruvate; format: cell-based; settings: read-out: IC50 (the source's name)
T2 sequence (P06536 whole entry): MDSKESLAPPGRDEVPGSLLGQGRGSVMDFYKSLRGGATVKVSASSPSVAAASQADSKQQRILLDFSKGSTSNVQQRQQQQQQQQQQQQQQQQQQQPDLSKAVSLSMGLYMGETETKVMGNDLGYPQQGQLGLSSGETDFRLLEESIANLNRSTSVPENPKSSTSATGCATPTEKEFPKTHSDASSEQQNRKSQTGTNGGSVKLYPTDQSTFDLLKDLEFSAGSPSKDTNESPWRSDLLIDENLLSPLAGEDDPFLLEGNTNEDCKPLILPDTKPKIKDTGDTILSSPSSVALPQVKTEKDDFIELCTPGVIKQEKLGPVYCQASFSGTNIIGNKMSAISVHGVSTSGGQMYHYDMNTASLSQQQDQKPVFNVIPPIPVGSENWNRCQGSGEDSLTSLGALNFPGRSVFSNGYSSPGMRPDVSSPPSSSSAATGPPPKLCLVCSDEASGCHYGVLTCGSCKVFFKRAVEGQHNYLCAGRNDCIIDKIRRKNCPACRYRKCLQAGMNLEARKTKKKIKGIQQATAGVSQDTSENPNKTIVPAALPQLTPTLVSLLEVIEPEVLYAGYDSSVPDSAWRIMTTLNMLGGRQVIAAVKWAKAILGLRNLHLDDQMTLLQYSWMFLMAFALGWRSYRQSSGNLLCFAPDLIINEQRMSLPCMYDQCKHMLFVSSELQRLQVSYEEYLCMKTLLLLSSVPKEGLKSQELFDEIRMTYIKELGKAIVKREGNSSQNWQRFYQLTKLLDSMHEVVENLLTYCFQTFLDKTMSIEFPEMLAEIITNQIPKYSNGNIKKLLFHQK

[3] = target: T2, Glucocorticoid receptor; assay: Transactivation of glucocorticoid receptor in rat H42E cells assessed as induction of TAT measuring degradation of tyrosine to p-hydroxy phenyl pyruvate at 1 uM relative to prednisolone; format: cell-based; settings: read-out: Efficacy
[4] = target: T1, Glucocorticoid receptor; assay: Transactivation of glucocorticoid receptor in human HepG2 cells assessed as induction of TAT measuring degradation of tyrosine to p-hydroxy phenyl pyruvate at 1 uM relative to untreated control; format: cell-based; settings: hepg2, 1 µM
[5] = tested on: Rattus norvegicus; assay: Antiinflammatory activity against Brown Norway rat allergic lung inflammation model assessed as total cell inhibition at 10 mg/kg, po for 3 days; format: functional; design: scale not given: the % may be the effect or the level left
[6] = tested on: Rattus norvegicus; assay: Toxicity in Brown Norway rat allergic lung inflammation model assessed as decrease in thymus weight at 10 mg/kg, po for 3 days; format: organism-based; design: dose 10 mg/kg, route oral; scale not given: the % may be the effect or the level left; settings: in vivo, 72 h
[7] = AUC in Brown Norway rat at 10 mg/kg, po; format: ADME, organism-based; design: dose 10 mg/kg, route oral; settings: plasma
[8] = tested on: Rattus norvegicus; assay: Antiinflammatory activity against Brown Norway rat allergic lung inflammation model assessed as total cell inhibition at 0.3 to 30 mg/kg, po for 10 days relative to prednisolone; format: functional, organism-based
[9] = tested on: Rattus norvegicus; assay: Toxicity in Brown Norway rat allergic lung inflammation model assessed as decrease in thymus weight at 0.3 to 30 mg/kg, po for 10 days; format: organism-based; design: dose 0.3-30 mg/kg, route oral; settings: in vivo, 240 h
[10] = tested on: Rattus norvegicus; assay: Antiinflammatory activity in ovalbumin-induced allergic Brown Norway rat lung inflammation model assessed as inhibition of forced vital capacity at 3 mg/kg, po qd administered 3 days before ovalbumin-challenge measured 24 hrs of post ovalbumin challenge; format: functional
[11] = tested on: Rattus norvegicus; assay: Antiinflammatory activity in ovalbumin-induced allergic Brown Norway rat lung inflammation model assessed as inhibition of forced vital capacity at 10 mg/kg, po qd administered 3 days before ovalbumin-challenge measured 24 hrs of post ovalbumin challenge; format: functional
[12] = tested on: Rattus norvegicus; assay: Antiinflammatory activity in ovalbumin-induced allergic Brown Norway rat lung inflammation model assessed as inhibition of forced vital capacity at 30 mg/kg, po qd administered 3 days before ovalbumin-challenge measured 24 hrs of post ovalbumin challenge; format: functional
[13] = tested on: Rattus norvegicus; assay: Antiinflammatory activity in po dosed ovalbumin-induced allergic Brown Norway rat lung inflammation model assessed as inhibition of forced vital capacity administered 3 days before ovalbumin-challenge measured 24 hrs of post ovalbumin challenge; format: functional
[14] = tested on: Rattus norvegicus; assay: Antiinflammatory activity in rat assessed as inhibition of LPS-induced TNF-alpha secretion up to 50 mg/kg, po; format: functional, organism-based; design: dose 50 mg/kg
[15] = target: T3, Progesterone receptor (Homo sapiens, UniProt P06401); assay: Inhibition of human progesterone receptor
T3 sequence (P06401 whole entry): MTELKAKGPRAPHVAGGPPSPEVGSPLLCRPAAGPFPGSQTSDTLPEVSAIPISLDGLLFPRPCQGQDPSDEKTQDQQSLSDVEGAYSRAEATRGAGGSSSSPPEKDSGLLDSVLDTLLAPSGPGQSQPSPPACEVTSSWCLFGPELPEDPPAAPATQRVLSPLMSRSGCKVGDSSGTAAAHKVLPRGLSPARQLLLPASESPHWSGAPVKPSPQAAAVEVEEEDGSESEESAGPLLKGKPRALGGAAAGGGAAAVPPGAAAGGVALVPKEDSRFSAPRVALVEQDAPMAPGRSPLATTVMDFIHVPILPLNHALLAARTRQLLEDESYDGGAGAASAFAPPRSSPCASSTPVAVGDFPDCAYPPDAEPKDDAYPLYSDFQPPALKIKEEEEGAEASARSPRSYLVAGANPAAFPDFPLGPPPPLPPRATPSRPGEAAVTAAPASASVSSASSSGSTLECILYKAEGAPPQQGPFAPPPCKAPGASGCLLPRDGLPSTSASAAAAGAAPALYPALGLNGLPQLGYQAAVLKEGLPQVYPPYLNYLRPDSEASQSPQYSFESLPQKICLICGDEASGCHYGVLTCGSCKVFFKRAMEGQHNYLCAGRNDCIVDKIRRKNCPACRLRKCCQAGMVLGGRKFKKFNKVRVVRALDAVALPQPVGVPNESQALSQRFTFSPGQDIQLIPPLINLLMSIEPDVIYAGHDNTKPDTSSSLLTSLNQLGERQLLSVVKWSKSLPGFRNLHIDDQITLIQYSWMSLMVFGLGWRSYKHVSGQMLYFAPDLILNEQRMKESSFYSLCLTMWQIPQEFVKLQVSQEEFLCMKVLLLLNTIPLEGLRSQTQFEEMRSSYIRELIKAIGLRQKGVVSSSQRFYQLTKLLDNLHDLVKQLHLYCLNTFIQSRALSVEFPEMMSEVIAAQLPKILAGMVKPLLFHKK

[16] = target: T1, Glucocorticoid receptor; assay: Inhibition of human glucocorticoid receptor

Compound	IC50 [1] [nM]	EC50 [2] [nM]	Emax at 1 µM [3] [%]	Efficacy [4] [%]	Activity [5] [%]	Activity [6] [%]	AUC [7] [ng·h/mL]	Activity [8]	Activity [9]	inhibition in vivo at 3 mg/kg [10] [%]	inhibition in vivo at 10 mg/kg [11] [%]	inhibition in vivo at 30 mg/kg [12] [%]	ED50 [13] [mg/kg]	inhibition [14]	IC50 [15] [nM]	IC50 [16] [nM]
Cn1c(SCC(=O)[C@@]2(O)CC[C@H]3[C@@H]4CCC5=CC(=O)C=C[C@]5(C)[C@H]4[C@@H](O)C[C@@]32C)nc2ccccc21	47	235	4	11	58	4	960	Active	Toxic	23	50	71	10	Active	1370	7.3
C[C@]12C=CC(=O)C=C1CC[C@@H]1[C@@H]2[C@@H](O)C[C@@]2(C)[C@H]1CC[C@]2(O)C(=O)CO [PREDNISOLONE]	–	–	100	81	56	53	1250	–	–	43	81	111	5	–	–	–
